Laboratory results reported in ChEMBL document CHEMBL4507285, “Data for DCP probe MRL-SYKi” (2021).

Assays:
[1] = biological target: Serine/threonine-protein kinase DCLK2 (Homo sapiens) (UniProt Q8N568); conditions: Compound concentration 100.0 nM
LIM domain kinase 1 = LIM domain kinase 1 (Homo sapiens, UniProt P53667); conditions: Compound concentration 100.0 nM
[2] = biological target: Calcium/calmodulin-dependent protein kinase type 1B (Homo sapiens) (UniProt Q6P2M8); conditions: Compound concentration 100.0 nM
[3] = biological target: D(1B) dopamine receptor (Homo sapiens) (UniProt P21918); conditions: Compound concentration 10.0 uM
[4] = biological target: NT-3 growth factor receptor (Homo sapiens, UniProt Q16288); conditions: Compound concentration 100.0 nM
[5] = biological target: Transient receptor potential cation channel subfamily M member 6 (Homo sapiens) (UniProt Q9BX84); conditions: Compound concentration 100.0 nM
[6] = biological target: Beta-3 adrenergic receptor (Homo sapiens) (UniProt P13945); conditions: Compound concentration 10.0 uM
[7] = biological target: Serine/threonine-protein kinase PAK 3 (Homo sapiens) (UniProt O75914); conditions: Compound concentration 100.0 nM
[8] = biological target: Cyclin-dependent kinase 17 (Homo sapiens) (UniProt Q00537); conditions: Compound concentration 100.0 nM
[9] = biological target: Serine/threonine-protein kinase RIO2 (Homo sapiens) (UniProt Q9BVS4); conditions: Compound concentration 100.0 nM
[10] = biological target: Serine/threonine-protein kinase Chk2 (Homo sapiens) (UniProt O96017); conditions: Compound concentration 100.0 nM
[11] = biological target: Tyrosine-protein kinase receptor TYRO3 (Homo sapiens) (UniProt Q06418); conditions: Compound concentration 100.0 nM
[12] = biological target: Death-associated protein kinase 2 (Homo sapiens) (UniProt Q9UIK4); conditions: Compound concentration 100.0 nM
[13] = biological target: Dual specificity mitogen-activated protein kinase kinase 5 (Homo sapiens) (UniProt Q13163); conditions: Compound concentration 100.0 nM
[14] = biological target: Serine/threonine-protein kinase Nek2 (Homo sapiens) (UniProt P51955); conditions: Compound concentration 100.0 nM
[15] = tested on: Proto-oncogene tyrosine-protein kinase receptor Ret (Homo sapiens), P07949 [V804L]; conditions: Compound concentration 100.0 nM
[16] = biological target: MAP/microtubule affinity-regulating kinase 3 (Homo sapiens) (UniProt P27448); conditions: Compound concentration 100.0 nM
[17] = biological target: cAMP-dependent protein kinase catalytic subunit beta (Homo sapiens) (UniProt P22694); conditions: Compound concentration 100.0 nM
[18] = biological target: Serine/threonine-protein kinase VRK2 (Homo sapiens) (UniProt Q86Y07); conditions: Compound concentration 100.0 nM
[19] = biological target: NUAK family SNF1-like kinase 2 (Homo sapiens) (UniProt Q9H093); conditions: Compound concentration 100.0 nM
[20] = biological target: Protein kinase C iota type (Homo sapiens) (UniProt P41743); conditions: Compound concentration 100.0 nM
[21] = tested on: Phosphatidylinositol 4,5-bisphosphate 3-kinase catalytic subunit alpha isoform (Homo sapiens), P42336 [C420R]; conditions: Compound concentration 100.0 nM
[22] = biological target: Receptor-interacting serine/threonine-protein kinase 4 (Homo sapiens) (UniProt P57078); conditions: Compound concentration 100.0 nM
[23] = tested on: Phosphatidylinositol 4,5-bisphosphate 3-kinase catalytic subunit alpha isoform (Homo sapiens), P42336 [E545K]; conditions: Compound concentration 100.0 nM
[24] = biological target: Activin receptor type-2B (Homo sapiens) (UniProt Q13705); conditions: Compound concentration 100.0 nM
[25] = biological target: Alpha-2C adrenergic receptor (Homo sapiens) (UniProt P18825); conditions: Compound concentration 10.0 uM
[26] = tested on: Receptor-type tyrosine-protein kinase FLT3 (Homo sapiens), P36888 [R834Q]; conditions: Compound concentration 100.0 nM
[27] = biological target: Muscle, skeletal receptor tyrosine-protein kinase (Homo sapiens) (UniProt O15146); conditions: Compound concentration 100.0 nM
[28] = biological target: G protein-coupled receptor kinase 3 (Homo sapiens) (UniProt P35626); conditions: Compound concentration 100.0 nM
[29] = biological target: Serine/threonine-protein kinase Nek9 (Homo sapiens) (UniProt Q8TD19); conditions: Compound concentration 100.0 nM
[30] = biological target: Serine/threonine-protein kinase MARK1 (Homo sapiens) (UniProt Q9P0L2); conditions: Compound concentration 100.0 nM
[31] = biological target: Cyclin-dependent kinase 8 (Homo sapiens) (UniProt P49336); conditions: Compound concentration 100.0 nM
[32] = biological target: Mitogen-activated protein kinase kinase kinase 3 (Homo sapiens) (UniProt Q99759); conditions: Compound concentration 100.0 nM
[33] = biological target: D(1A) dopamine receptor (Homo sapiens) (UniProt P21728); conditions: Compound concentration 10.0 uM
[34] = biological target: D(2) dopamine receptor (Homo sapiens) (UniProt P14416); conditions: Compound concentration 10.0 uM
[35] = biological target: Muscarinic acetylcholine receptor M4 (Homo sapiens) (UniProt P08173); conditions: Compound concentration 10.0 uM
[36] = biological target: Testis-specific serine/threonine-protein kinase 1 (Homo sapiens) (UniProt Q9BXA7); conditions: Compound concentration 100.0 nM
[37] = biological target: Testis-specific serine/threonine-protein kinase 3 (Homo sapiens) (UniProt Q96PN8); conditions: Compound concentration 100.0 nM
[38] = biological target: TGF-beta receptor type-2 (Homo sapiens) (UniProt P37173); conditions: Compound concentration 100.0 nM
[39] = biological target: Mitogen-activated protein kinase 7 (Homo sapiens) (UniProt Q13164); conditions: Compound concentration 100.0 nM
[40] = biological target: Serine/threonine-protein kinase 17A (Homo sapiens) (UniProt Q9UEE5); conditions: Compound concentration 100.0 nM
[41] = biological target: Serine/threonine-protein kinase Chk1 (Homo sapiens) (UniProt O14757); conditions: Compound concentration 100.0 nM
[42] = biological target: BMP-2-inducible protein kinase (Homo sapiens) (UniProt Q9NSY1); conditions: Compound concentration 100.0 nM
[43] = biological target: Receptor-interacting serine/threonine-protein kinase 2 (Homo sapiens) (UniProt O43353); conditions: Compound concentration 100.0 nM
[44] = biological target: Serine/threonine-protein kinase BRSK2 (Homo sapiens) (UniProt Q8IWQ3); conditions: Compound concentration 100.0 nM
Chain of Serine/threonine-protein kinase BRSK2 (Homo sapiens) (Q8IWQ3 whole entry): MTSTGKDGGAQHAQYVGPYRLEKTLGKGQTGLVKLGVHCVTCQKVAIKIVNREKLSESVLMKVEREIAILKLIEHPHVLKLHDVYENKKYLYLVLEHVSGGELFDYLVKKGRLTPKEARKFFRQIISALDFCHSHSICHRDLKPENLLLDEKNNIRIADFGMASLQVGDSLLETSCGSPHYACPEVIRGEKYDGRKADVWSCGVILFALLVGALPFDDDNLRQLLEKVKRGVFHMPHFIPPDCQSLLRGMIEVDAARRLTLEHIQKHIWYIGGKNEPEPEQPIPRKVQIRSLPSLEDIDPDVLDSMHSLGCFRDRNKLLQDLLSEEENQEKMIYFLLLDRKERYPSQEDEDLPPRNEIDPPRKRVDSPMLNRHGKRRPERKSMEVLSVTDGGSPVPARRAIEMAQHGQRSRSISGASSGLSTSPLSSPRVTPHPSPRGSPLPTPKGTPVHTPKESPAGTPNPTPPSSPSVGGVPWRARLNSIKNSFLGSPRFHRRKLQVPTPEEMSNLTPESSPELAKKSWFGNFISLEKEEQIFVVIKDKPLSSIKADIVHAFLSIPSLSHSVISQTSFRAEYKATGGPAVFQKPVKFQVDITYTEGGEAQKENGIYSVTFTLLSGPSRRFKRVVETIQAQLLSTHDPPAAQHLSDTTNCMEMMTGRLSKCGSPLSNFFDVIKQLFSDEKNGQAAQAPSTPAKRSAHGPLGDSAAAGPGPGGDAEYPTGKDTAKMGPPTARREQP

Chain of Phosphatidylinositol 4,5-bisphosphate 3-kinase catalytic subunit alpha isoform (Homo sapiens), P42336 [E545K] (P42336 whole entry E545K, canonical isoform): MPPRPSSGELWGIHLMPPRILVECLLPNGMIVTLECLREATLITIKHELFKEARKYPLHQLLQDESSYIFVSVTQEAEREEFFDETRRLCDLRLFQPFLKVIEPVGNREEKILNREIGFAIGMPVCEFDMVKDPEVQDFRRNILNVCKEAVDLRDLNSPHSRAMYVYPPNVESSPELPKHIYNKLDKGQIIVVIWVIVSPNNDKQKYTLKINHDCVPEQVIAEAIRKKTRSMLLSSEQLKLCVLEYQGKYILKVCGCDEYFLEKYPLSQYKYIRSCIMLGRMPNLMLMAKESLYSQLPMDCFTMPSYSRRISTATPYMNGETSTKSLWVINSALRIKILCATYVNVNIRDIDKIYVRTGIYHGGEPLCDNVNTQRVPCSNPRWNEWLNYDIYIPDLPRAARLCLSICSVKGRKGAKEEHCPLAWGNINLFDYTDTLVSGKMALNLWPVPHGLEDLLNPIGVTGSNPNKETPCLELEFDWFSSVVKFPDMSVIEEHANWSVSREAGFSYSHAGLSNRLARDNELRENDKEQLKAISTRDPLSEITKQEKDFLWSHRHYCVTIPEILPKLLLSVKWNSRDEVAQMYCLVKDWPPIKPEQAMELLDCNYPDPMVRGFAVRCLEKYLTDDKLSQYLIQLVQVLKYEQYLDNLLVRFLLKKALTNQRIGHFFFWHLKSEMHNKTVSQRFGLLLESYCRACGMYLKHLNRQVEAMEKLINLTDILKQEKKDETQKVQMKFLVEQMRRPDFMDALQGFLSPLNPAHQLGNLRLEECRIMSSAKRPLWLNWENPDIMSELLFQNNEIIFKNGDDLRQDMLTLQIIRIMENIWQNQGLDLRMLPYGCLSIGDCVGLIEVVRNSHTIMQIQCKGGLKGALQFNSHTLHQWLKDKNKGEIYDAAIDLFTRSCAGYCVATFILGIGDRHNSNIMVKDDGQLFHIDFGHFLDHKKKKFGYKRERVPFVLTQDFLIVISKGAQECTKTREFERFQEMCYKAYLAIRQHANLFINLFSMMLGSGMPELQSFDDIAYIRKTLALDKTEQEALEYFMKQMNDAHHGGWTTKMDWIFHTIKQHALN
Chain of Serine/threonine-protein kinase PAK 3 (Homo sapiens) (O75914 whole entry, looked up): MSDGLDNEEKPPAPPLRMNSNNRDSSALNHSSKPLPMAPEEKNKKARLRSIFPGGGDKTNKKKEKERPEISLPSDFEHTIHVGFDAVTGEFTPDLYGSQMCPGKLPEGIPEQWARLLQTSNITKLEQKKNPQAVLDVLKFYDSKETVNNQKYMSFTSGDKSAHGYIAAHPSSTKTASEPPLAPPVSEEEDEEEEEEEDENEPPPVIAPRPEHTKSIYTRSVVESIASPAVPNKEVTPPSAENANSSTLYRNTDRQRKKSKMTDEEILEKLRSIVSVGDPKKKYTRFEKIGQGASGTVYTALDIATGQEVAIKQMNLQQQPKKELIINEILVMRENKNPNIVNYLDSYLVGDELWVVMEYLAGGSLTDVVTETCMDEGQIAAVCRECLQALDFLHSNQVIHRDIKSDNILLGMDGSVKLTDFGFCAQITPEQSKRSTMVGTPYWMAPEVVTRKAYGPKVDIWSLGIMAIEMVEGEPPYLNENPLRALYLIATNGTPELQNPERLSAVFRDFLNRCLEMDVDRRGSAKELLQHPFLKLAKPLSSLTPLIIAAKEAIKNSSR
Chain of Serine/threonine-protein kinase Chk2 (Homo sapiens) (O96017 whole entry): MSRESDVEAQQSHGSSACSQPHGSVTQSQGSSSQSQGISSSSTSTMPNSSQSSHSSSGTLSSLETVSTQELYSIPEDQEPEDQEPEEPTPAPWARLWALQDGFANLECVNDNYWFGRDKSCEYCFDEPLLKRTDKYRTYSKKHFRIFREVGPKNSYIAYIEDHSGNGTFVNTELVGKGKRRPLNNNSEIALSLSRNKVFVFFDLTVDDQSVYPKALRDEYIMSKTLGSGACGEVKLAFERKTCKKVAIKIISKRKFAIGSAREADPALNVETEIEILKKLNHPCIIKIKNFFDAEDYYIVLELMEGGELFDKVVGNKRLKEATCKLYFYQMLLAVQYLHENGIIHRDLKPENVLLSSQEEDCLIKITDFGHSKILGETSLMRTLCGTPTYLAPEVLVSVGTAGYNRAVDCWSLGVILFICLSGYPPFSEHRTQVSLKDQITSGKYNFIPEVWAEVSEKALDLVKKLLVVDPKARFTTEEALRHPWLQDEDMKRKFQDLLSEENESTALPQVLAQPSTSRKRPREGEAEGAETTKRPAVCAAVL
Chain of Death-associated protein kinase 2 (Homo sapiens) (Q9UIK4 whole entry, looked up): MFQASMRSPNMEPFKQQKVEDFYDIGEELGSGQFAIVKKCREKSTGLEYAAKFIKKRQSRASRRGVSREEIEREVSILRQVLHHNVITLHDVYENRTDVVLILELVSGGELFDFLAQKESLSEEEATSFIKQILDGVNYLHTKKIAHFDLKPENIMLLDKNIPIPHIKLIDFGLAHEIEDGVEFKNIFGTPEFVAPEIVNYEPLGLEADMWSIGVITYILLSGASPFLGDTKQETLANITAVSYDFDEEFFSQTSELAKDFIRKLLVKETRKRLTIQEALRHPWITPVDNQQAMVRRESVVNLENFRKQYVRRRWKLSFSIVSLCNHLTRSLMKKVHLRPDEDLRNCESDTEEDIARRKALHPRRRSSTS
Chain of Proto-oncogene tyrosine-protein kinase receptor Ret (Homo sapiens), P07949 [V804L] (P07949 whole entry V804L): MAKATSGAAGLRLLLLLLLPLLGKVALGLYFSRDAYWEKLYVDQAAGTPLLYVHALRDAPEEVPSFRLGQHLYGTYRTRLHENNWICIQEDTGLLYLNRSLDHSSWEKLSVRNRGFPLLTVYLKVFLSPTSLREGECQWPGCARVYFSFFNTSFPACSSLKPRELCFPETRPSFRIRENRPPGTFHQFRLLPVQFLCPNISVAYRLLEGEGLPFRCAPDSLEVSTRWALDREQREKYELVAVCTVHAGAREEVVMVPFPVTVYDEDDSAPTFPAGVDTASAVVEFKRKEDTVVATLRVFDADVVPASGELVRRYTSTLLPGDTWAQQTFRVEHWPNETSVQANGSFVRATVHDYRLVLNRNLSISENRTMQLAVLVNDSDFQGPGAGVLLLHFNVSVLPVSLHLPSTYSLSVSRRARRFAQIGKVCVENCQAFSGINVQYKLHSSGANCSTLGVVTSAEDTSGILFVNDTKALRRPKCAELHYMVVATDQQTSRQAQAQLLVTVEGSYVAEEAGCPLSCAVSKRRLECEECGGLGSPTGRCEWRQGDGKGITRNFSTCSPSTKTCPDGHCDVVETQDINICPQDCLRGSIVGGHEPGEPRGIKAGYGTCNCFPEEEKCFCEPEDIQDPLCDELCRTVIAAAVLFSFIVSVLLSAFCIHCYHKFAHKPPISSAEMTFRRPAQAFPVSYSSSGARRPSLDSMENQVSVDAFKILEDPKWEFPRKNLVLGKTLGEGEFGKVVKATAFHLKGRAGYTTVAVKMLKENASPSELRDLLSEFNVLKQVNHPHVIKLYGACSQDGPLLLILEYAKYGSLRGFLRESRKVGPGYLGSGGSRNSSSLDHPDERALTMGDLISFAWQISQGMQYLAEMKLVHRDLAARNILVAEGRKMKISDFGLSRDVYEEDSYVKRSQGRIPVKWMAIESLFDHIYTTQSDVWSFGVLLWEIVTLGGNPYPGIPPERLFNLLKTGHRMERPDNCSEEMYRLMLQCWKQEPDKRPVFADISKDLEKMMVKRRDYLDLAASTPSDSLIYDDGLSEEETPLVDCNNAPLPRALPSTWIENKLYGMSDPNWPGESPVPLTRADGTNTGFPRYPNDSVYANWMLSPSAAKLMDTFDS
Chain of Cyclin-dependent kinase 8 (Homo sapiens) (P49336 whole entry): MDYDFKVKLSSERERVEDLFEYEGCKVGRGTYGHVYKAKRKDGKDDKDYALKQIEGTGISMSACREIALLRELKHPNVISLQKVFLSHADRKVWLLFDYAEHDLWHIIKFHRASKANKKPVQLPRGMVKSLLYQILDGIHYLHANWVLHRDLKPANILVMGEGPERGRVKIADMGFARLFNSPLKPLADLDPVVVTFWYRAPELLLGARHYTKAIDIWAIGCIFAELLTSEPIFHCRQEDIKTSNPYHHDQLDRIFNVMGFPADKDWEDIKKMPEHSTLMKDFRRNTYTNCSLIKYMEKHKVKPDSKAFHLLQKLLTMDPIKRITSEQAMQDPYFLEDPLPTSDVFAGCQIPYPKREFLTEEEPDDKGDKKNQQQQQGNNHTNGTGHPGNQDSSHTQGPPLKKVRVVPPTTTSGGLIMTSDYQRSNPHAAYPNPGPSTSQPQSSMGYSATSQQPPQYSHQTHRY
Chain of Phosphatidylinositol 4,5-bisphosphate 3-kinase catalytic subunit alpha isoform (Homo sapiens), P42336 [C420R] (P42336 whole entry C420R, canonical isoform): as the sequence (P42336 whole entry E545K, canonical isoform) above, with C420R, K545E counted along it

**Q.** What does the source list for `Cc1ccc(-c2cnc([C@@]3(O)CC[C@H](C(=O)O)C(C)(C)C3)s2)cc1Nc1cccc(C(F)(F)F)n1` [MRL-SYKi-NC]?
**A.** residual activity [1]: 100%; residual activity (LIM domain kinase 1): 100%; residual activity [2]: 95.9%; inhibition [3]: 18.6%; residual activity [4]: 80%; residual activity [5]: 77.1%; inhibition [6]: -6.54%; residual activity [7]: 76.3%; residual activity [8]: 100%; residual activity [9]: 100%; residual activity [10]: 100%; residual activity [11]: 100%; residual activity [12]: 84.8%; residual activity [13]: 85.2%; residual activity [14]: 100%; residual activity [15]: 100%; residual activity [16]: 100%; residual activity [17]: 71.5%; residual activity [18]: 100%; residual activity [19]: 93.1%; residual activity [20]: 96.2%; residual activity [21]: 85.3%; residual activity [22]: 92.8%; residual activity [23]: 97.7%; residual activity [24]: 100%; inhibition [25]: 11.8%; residual activity [26]: 70.5%; residual activity [27]: 93.6%; residual activity [28]: 98.3%; residual activity [29]: 80.3%; residual activity [30]: 62.8%; residual activity [31]: 78.7%; residual activity [32]: 82.5%; inhibition [33]: 6.26%; inhibition [34]: -5.34%; inhibition [35]: 20%; residual activity [36]: 100%; residual activity [37]: 100%; residual activity [38]: 100%; residual activity [39]: 100%; residual activity [40]: 96.7%; residual activity [41]: 100%; residual activity [42]: 100%; residual activity [43]: 96.8%; residual activity [44]: 60.7%

**Q.** What does the source list for `Cc1cc(Nc2nccc(C)n2)cc(-c2cnc([C@@]3(O)CC[C@H](C(=O)O)C(C)(C)C3)s2)c1` [MRL-SYKi]?
**A.** residual activity [1]: 90.1%; residual activity (LIM domain kinase 1): 93.1%; residual activity [2]: 78.1%; inhibition [3]: 8.85%; residual activity [4]: 82.6%; residual activity [5]: 94.8%; inhibition [6]: 3.43%; residual activity [7]: 100%; residual activity [8]: 73.2%; residual activity [9]: 83.9%; residual activity [10]: 100%; residual activity [11]: 60.2%; residual activity [12]: 100%; residual activity [13]: 25.2%; residual activity [14]: 100%; residual activity [15]: 87%; residual activity [16]: 100%; residual activity [17]: 100%; residual activity [18]: 100%; residual activity [19]: 100%; residual activity [20]: 77.3%; residual activity [21]: 99.9%; residual activity [22]: 91.9%; residual activity [23]: 68.3%; residual activity [24]: 82.8%; inhibition [25]: -3.94%; residual activity [26]: 96.3%; residual activity [27]: 100%; residual activity [28]: 73.7%; residual activity [29]: 92.8%; residual activity [30]: 95.3%; residual activity [31]: 100%; residual activity [32]: 100%; inhibition [33]: -7.4%; inhibition [34]: -3.52%; inhibition [35]: 16.7%; residual activity [36]: 100%; residual activity [37]: 100%; residual activity [38]: 49.5%; residual activity [39]: 83.6%; residual activity [40]: 99.6%; residual activity [41]: 100%; residual activity [42]: 100%; residual activity [43]: 83.8%; residual activity [44]: 100%
